Results: patent US10738041B2, “Ferroportin inhibitors” (Vifor (International) AG, priority 2015, dated 2020)
pIC50: −log10 of the molar value.

How the values were obtained:
ferroportin (Fpn) = target: T1, ferroportin (Fpn) (Mus musculus, UniProt Q9JHI9); assay: Hepcidin Internalization Assay (J774); assay type: cell-based; settings: average of multiple measurements; inhibition of TMR-hepcidin (25 nM) internalization into J774 cells; read-out: J774 IC50
T1 construct: host or cells: J774 mouse macrophage cell line, Fe(III)-NTA induced
T1 sequence (Q9JHI9 1-570): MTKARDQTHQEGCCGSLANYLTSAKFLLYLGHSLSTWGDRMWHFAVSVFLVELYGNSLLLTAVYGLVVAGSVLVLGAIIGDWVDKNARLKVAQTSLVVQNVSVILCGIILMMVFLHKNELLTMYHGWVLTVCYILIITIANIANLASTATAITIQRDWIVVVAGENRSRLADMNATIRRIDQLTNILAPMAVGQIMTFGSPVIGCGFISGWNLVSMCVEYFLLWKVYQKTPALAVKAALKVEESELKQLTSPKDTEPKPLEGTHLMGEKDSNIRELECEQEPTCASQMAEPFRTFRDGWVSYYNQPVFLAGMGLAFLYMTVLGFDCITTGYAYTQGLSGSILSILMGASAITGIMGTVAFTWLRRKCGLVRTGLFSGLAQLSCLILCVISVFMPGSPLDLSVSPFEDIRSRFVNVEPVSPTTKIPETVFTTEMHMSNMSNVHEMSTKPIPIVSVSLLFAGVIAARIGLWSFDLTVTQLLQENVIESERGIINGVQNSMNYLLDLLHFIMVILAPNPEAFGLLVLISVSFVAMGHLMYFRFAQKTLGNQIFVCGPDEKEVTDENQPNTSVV
Description: This cellular assay allows quantification of the binding of hepcidin to ferroportin (Fpn) through microscopic detection of internalization of a fluorescently labeled hepcidin into J774 cells. […] Binding of hepcidin to Fpn triggers internalization and degradation of both hepcidin and Fpn. However, the TMR (6-carboxytetramethylrhodamine) fluorophore attached to hepcidin remains associated with the cell after degradation of the hepcidin peptide backbone. Therefore, microscopic detection of ceH associated TMR fluorescence is a measure of hepcidin binding to Fpn and internalization of hepcidin and Fpn. If TMR-hepcidin is prevented from binding to Fpn, cellular TMR fluorescence remains low (Dürrenberger et al, 2013). The effect of small molecular weight Fpn inhibitor compounds in this assay was evaluated in vitro as described below.
J774 cells, harvested from ca. 80% confluent cultures, were plated at 8×10^5 cells/ml in complete medium (DMEM, 10% FBS, 1% Penicillin-Streptomycin) containing 200 μM Fe(III)NTA (nitrilotriacetic acid), 100 μl per well of 96 well MicroClear plates (Greiner; Cat. 655090) and grown at 37° C. with 5% CO2. After overnight incubation, cells were washed 3 times with pre-warmed DMEM w/o phenol red, 30 μl/well of DMEM w/o phenol red was added after the final wash and 10 μl/well of dilution series of test compounds were added in triplicates. […] Cells were incubated in a total volume of 50 μl at 37° C. with 5% CO2 for 2 hours, then Hoechst 33342 dye was added to a final concentration of 0.5 μg/ml to stain nuclei and further incubated for 10 min. at 37° C. with 5% CO2. Cells were washed 3 times with PBS and fixed in 100 μl of 4% paraformaldehyde in PBS for 15 min. at room temperature. After removal of the paraformaldehyde solution, cells were washed 3 times with PBS leaving 100 μl per well and the plates were sealed with foil plate seal. TMR (530-550 nm excitation/575-625 nm emission/400 ms exposure time) and Hoechst 33342 (360-370 nm excitation/420-460 nm emission/10 ms exposure time) fluorescence images were acquired using a ScanR plate imager (Olympus) with a 20× high NA objective. Four pictures were acquired per well and fluorescence channel covering ca. 1500 cells per well. The acquired image data was analysed with the ScanR image analysis software. Image analysis included detection of nuclei (Hoechst 33342 fluorescence), identification of cell-associated regions, application of a virtual channel and thresholding for rolling-ball-type background reduction, followed by application of the Sum(Mean) algorithm to measure the TMR fluorescence associated with cells as a quantitative measure for internalized TMR-hepcidin. IC50 values were calculated with the Sum(Mean) raw data using “log(inhibitor) vs. response” curve fitting of Prism 5 software (GraphPad Software Inc., version 5.02).

human Fpn = target: T2, human Fpn (Homo sapiens, UniProt Q9NP59); assay: Biophysical Ferroportin-Hepcidin Binding Assay (fluorescence polarization); settings: average of multiple measurements; 1 μM human Fpn, 20 nM TMR-hepcidin; read-out: FP IC50
T2 construct: FLAG (C); made in house; host or cells: Pichia pastoris
T2 sequence (Q9NP59 1-571): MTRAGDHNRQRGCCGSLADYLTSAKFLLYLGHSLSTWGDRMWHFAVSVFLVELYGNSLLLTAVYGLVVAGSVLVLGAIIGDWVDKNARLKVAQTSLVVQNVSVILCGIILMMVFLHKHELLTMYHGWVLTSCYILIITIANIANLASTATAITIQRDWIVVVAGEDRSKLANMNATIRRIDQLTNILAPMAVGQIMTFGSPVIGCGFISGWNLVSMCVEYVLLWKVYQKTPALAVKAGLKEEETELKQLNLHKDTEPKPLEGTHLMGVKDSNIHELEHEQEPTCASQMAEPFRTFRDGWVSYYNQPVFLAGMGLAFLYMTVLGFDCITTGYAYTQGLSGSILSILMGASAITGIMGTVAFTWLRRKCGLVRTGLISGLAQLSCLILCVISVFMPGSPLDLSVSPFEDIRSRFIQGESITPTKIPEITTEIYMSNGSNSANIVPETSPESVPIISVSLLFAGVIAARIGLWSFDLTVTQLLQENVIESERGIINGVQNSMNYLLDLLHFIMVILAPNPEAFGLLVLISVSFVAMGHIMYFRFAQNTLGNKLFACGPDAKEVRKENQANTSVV
Experimental: This biophysical assay was developed to confirm inhibition of hepcidin binding to ferroportin (Fpn) more directly. Incubation of TMR-hepcidin with purified human Fpn isolated from Pichia pastoris yeast cells expressing human Fpn with a C-terminal FLAG affinity tag (Bonaccorsi di Patti, 2014) leads to increased fluorescence polarization (FP) of the TMR-hepcidin ligand. Small molecular weight Fpn inhibitors were tested for inhibition of binding of TMR-hepcidin to Fpn, as detected by dose-dependent decrease of the TMR FP signal, as described in detail below.
8 μl of serial dilutions of test compounds were added in duplicates to reach final Fpn and TMR-hepcidin concentrations of 1 μM and 20 nM, respectively. Plates were incubated for 90 minutes at room temperature and parallel (S) and perpendicular (P) fluorescence was measured in a Synergy H1 fluorescence reader (BioTek). FP values were calculated in mP according to the following formula.

O=C(NCc1ccnc(N2CCOCC2)c1)c1csc(CCNCc2nc3ccccc3[nH]2)n1 [Example 96]
pIC50 (ferroportin (Fpn)): 5.53
pIC50 (human Fpn): 5.14

CN(C)c1ccc(CNC(=O)c2csc(CCNCc3nc4ccccc4[nH]3)n2)cn1 [Example 98]
pIC50 (ferroportin (Fpn)): 5.73
pIC50 (human Fpn): 5.24

O=C(NCc1cccnc1F)c1csc(CCNCc2nc3ccccc3[nH]2)n1 [Example 103]
pIC50 (ferroportin (Fpn)): 5.63
pIC50 (human Fpn): 5.60

COc1cc(CNC(=O)c2csc(CCNCc3nc4ccccc4[nH]3)n2)ccn1 [Example 104]
pIC50 (ferroportin (Fpn)): 6.05
pIC50 (human Fpn): 5.76

Cc1ccnc(CNC(=O)c2csc(CCNCc3nc4ccccc4[nH]3)n2)c1 [Example 106]
pIC50 (ferroportin (Fpn)): 5.82
pIC50 (human Fpn): 5.35

O=C(NCc1ncccc1CO)c1csc(CCNCc2nc3ccccc3[nH]2)n1 [Example 110]
pIC50 (ferroportin (Fpn)): 5.77
pIC50 (human Fpn): 5.47

O=C(NCc1ncccc1F)c1csc(CNCCCc2nc3ccccc3[nH]2)n1 [Example 119]
pIC50 (ferroportin (Fpn)): 6.79
pIC50 (human Fpn): 5.28

O=C(NCc1ncccc1F)c1csc(CCNc2nc3ccccc3[nH]2)n1 [Example 121]
pIC50 (ferroportin (Fpn)): 6.33
pIC50 (human Fpn): 5.29

O=C(NCc1ncc(F)cc1F)c1csc(CNCCCc2nc3ccccc3[nH]2)n1 [Example 124]
pIC50 (ferroportin (Fpn)): 5.20
pIC50 (human Fpn): 5.46

O=C(NCc1ncccc1F)c1csc(CCNCCCc2nc3ccccc3[nH]2)n1 [Example 125]
pIC50 (ferroportin (Fpn)): 5.78
pIC50 (human Fpn): 5.43

C=C(C)c1sc(CCNCc2nc3ccccc3[nH]2)nc1C(=O)NCc1ncccc1F [Example 177]
pIC50 (ferroportin (Fpn)): 5.38
pIC50 (human Fpn): 4.81

Cc1cnc(CNC(=O)c2nc(CCNCc3nc4ccccc4[nH]3)sc2Cl)nc1 [Example 178]
pIC50 (ferroportin (Fpn)): 5.44
pIC50 (human Fpn): 5.72

O=C(NCc1ncccc1F)c1cnn(CC2CN(Cc3nc4ccccc4[nH]3)C2)c1 [Example 187]
pIC50 (ferroportin (Fpn)): 4.06
pIC50 (human Fpn): 4.45

O=C(NCc1ncccc1F)c1cnn(CC2CN(CCc3nc4ccccc4[nH]3)C2)c1 [Example 192]
pIC50 (ferroportin (Fpn)): 4.87
pIC50 (human Fpn): 4.31

Cn1cc(C(=O)NCc2ncccc2F)nc1CCNCc1nc2ccccc2[nH]1 [Example 210]
pIC50 (ferroportin (Fpn)): 5.31
pIC50 (human Fpn): 5.73

CC1(c2nc(C(=O)NCc3ncccc3F)cs2)CN(CCc2nc3ccccc3[nH]2)C1 [Example 212]
pIC50 (ferroportin (Fpn)): 5.07
pIC50 (human Fpn): 5.43

O=C(NCc1ncccc1F)c1csc(C2CCN(CCc3nc4ccccc4[nH]3)C2)n1 (stereo not shown) [Example 214]
pIC50 (ferroportin (Fpn)): 4.85
pIC50 (human Fpn): 5.50

O=C(NCc1ccccn1)c1csc(C2CCN(CCc3nc4ccccc4[nH]3)C2)n1 (stereo not shown) [Example 215]
pIC50 (ferroportin (Fpn)): 4.56
pIC50 (human Fpn): 4.81

O=C(NCc1ncccc1F)c1csc([C@H]2[C@@H]3CN(CCc4nc5ccccc5[nH]4)C[C@@H]32)n1 [Example 218]
pIC50 (ferroportin (Fpn)): 5.35
pIC50 (human Fpn): 5.66

Cc1c(C(=O)NCc2ncccc2F)ncn1CCNCCc1nc2ccccc2[nH]1 [Example 219]
pIC50 (ferroportin (Fpn)): 5.61
pIC50 (human Fpn): 5.96

CN(CCc1nc2ccccc2[nH]1)CCc1nc(C(=O)NCc2ncccc2F)co1 [Example 223]
pIC50 (ferroportin (Fpn)): 5.72
pIC50 (human Fpn): 5.57

O=C(NCc1ncccc1F)c1cccc(CCNCCc2nc3ccccc3[nH]2)c1 [Example 235]
pIC50 (ferroportin (Fpn)): 6.04
pIC50 (human Fpn): 6.53

O=C1N[C@@H](CCN2CCCc3nc4ccccc4n3C2)C(=O)N1CCc1ncccc1F [Example 240]
pIC50 (ferroportin (Fpn)): 5.61
pIC50 (human Fpn): 5.57

O=C(NCc1ncccc1F)c1cccc(CCNCCc2nc3c(F)cccc3[nH]2)c1 [Example 241]
pIC50 (ferroportin (Fpn)): 5.68
pIC50 (human Fpn): 5.78

CC(C)(CNCCc1nc2ccccc2[nH]1)c1nc(C(=O)NCc2ncccc2F)cs1 [Example 242]
pIC50 (ferroportin (Fpn)): 5.05
pIC50 (human Fpn): 4.56

O=C(NCc1cccnn1)c1coc(C2CN(CCc3nc4c(F)cccc4[nH]3)C2)n1 [Example 261]
pIC50 (ferroportin (Fpn)): 6.26
pIC50 (human Fpn): 6.36

O=C(c1csc(CCNCc2nc3ccccc3[nH]2)n1)N1CCCCC1 [compound 14]
pIC50 (ferroportin (Fpn)): 5.31
pIC50 (human Fpn): 4.83

O=C(CC(=O)NCc1ncccc1F)NCCNCc1nc2ccccc2[nH]1 [compound 149]
pIC50 (ferroportin (Fpn)): 5.20
pIC50 (human Fpn): 4.77

O=C(CC(=O)NCc1ncccc1F)NCCNCCc1nc2ccccc2[nH]1 [compound 168]
pIC50 (ferroportin (Fpn)): 6.05
pIC50 (human Fpn): 5.87

O=C(CCNCc1nc2ccccc2[nH]1)NCC(=O)NCc1ncccc1F [compound 172]
pIC50 (ferroportin (Fpn)): 5.41
pIC50 (human Fpn): 5.47

O=C(NCc1ncccc1F)[C@@H]1CCN(CCNCc2nc3ccccc3[nH]2)C1 [compound 204]
pIC50 (ferroportin (Fpn)): 5.48
pIC50 (human Fpn): 5.79

O=C(NCc1ncccc1F)c1ccnc(CCNCc2nc3ccccc3[nH]2)c1 [compound 222]
pIC50 (ferroportin (Fpn)): 5.47
pIC50 (human Fpn): 6.09
